Test results published in patent US9067871B2, “Aminotetraline derivatives, pharmaceutical compositions containing them, and their use in therapy” (ABBVIE DEUTSCHLAND GMBH & CO KG, priority 2009, dated 2015).
Structures can show the parent of a compound that is named as a salt. Where two headings read alike, the source gives them in different places.

Tests used:
[1] = target: human GlyT1c transporter (Homo sapiens (Human), UniProt P48067); assay: Radioligand binding assay using recombinant CHO cell membranes expressing human GlyT1; details: read-out: radioligand binding Kiapp
Chain of human GlyT1c transporter (P48067 whole entry): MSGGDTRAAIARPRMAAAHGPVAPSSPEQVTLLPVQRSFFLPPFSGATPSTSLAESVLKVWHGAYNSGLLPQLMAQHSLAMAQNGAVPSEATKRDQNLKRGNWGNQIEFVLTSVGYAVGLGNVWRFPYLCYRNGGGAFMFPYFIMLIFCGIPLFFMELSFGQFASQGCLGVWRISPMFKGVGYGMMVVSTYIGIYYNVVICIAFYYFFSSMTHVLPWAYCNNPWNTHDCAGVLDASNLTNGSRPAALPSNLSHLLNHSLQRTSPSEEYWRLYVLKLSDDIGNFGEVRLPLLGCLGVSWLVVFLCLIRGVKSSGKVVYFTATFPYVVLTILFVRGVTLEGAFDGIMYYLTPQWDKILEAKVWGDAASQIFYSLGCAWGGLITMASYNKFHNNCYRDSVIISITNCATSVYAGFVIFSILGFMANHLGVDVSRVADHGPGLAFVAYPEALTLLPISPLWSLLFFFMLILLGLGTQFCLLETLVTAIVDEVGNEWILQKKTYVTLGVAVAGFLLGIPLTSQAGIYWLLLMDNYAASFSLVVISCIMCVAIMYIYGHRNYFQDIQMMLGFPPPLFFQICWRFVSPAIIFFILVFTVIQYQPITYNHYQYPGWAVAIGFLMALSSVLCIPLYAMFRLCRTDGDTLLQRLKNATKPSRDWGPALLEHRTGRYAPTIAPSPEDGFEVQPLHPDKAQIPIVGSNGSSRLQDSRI
Description: 2. Radioligand binding assays using recombinant CHO cell membranes expressing human GlyT1: […]

[2] = target: human GlyT1c (Homo sapiens (Human), UniProt P48067); assay: [3H]-Glycine uptake into recombinant CHO cells expressing human GlyT1; assay type: cell-based
Chain of human GlyT1c (P48067 whole entry): as above
Summary of the method: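 Recombinant CHO cells stably expressing hGlyT1c, grown 24 h to sub-confluency on scintillating plates, given inhibitor or vehicle plus 200 nM (final) [3H]-glycine in HBSS. Uptake counted continuously by solid-phase scintillation for up to 3 h; nonspecific uptake defined with 10 μM Org24598.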

[3] = human GlyT1c-expressing CHO cell membranes
[4] = hGlyT1c_5_CHO cells, 200 nM [3H]-glycine

| SMILES | Ki [1, 3] [µM] | IC50 [2, 4] [µM] | Ki [1] [µM] | IC50 [2] [µM] |
| --- | --- | --- | --- | --- |
| Cc1csc(S(=O)(=O)NCCOc2ccc3c(c2)C(Cc2ccc(Cl)c(Cl)c2)C(N)CC3)c1 (centres unmarked) [Example 24, 4-Methyl-thiophene-2-sulfonic acid {2-[7-amino-8-(3,4-dichloro-benzyl)-5,6,7,8-tetrahydronaphthalen-2-yloxy]-ethyl}-amide hydrochloride] |  |  | ≤ 0.1 | ≤ 10 |
| NC1CCc2ccc(OCCNS(=O)(=O)c3ccccc3)cc2C1Cc1ccc(Cl)c(Cl)c1 (centres unmarked) [Example 16, N-{2-[7-Amino-8-(3,4-dichloro-benzyl)-5,6,7,8-tetrahydro-naphthalen-2-yloxy]-ethyl}-benzenesulfonamide hydrochloride] |  |  | ≤ 10 | ≤ 10 |
| CS(=O)(=O)NCCOc1ccc2c(c1)C(Cc1ccc(Cl)c(Cl)c1)C(N)CC2 (centres unmarked) [Example 15, N-{2-[7-Amino-8-(3,4-dichloro-benzyl)-5,6,7,8-tetrahydro-naphthalen-2-yloxy]-ethyl}-methanesulfonamide hydrochloride] |  |  | ≤ 1 | ≤ 1 |
| CCOC(=O)NC1CCc2ccc(OCCNC(=O)OC(C)(C)C)cc2C1Cc1ccc(Cl)c(Cl)c1 (centres unmarked) [Example 1, [7-(2-tert-Butoxycarbonylamino-ethoxy)-1-(3,4-dichloro-benzyl)-1,2,3,4-tetrahydro-naphthalen-2-yl]-carbamic acid ethyl ester] | ≤ 10 | ≤ 1000 |  |  |
| CCS(=O)(=O)NCCOc1ccc2c(c1)C(Cc1cccc(Cl)c1)C(N)CC2 (centres unmarked) [Example 70, Ethanesulfonic acid {2-[7-amino-8-(3-chloro-benzyl)-5,6,7,8-tetrahydro-naphthalen-2-yloxy]-ethyl}-amide hydrochloride] |  |  | ≤ 0.1 | ≤ 1 |
| N#Cc1ccc2c(c1)C(Cc1ccc(Cl)cc1)C(N)CC2 (centres unmarked) [Example 30, 7-Amino-8-(4-chlorobenzyl)-5,6,7,8-tetrahydronaphthalene-2-carbonitrile hydrochloride] | ≤ 100 | ≤ 100 |  |  |
| CCOC(=O)NC1CCc2ccc(OCCNS(=O)(=O)c3ccc(C)s3)cc2C1Cc1cccc(Cl)c1 (centres unmarked) [Example 53, {1-(3-Chloro-benzyl)-7-[2-(5-methyl-thiophene-2-sulfonylamino)-ethoxy]-1,2,3,4-tetrahydro-naphthalen-2-yl}-carbamic acid ethyl ester] | ≤ 10 | ≤ 1000 |  |  |
| CCCS(=O)(=O)NCCOc1ccc2c(c1)C(Cc1ccc(Cl)cc1Cl)C(NC(=O)OCC)CC2 (centres unmarked) [Example 74, {1-(2,4-Dichloro-benzyl)-7-[2-(propane-1-sulfonylamino)-ethoxy]-1,2,3,4-tetrahydronaphthalen-2-yl}-carbamic acid ethyl ester] | ≥ 10 | ≤ 100 |  |  |
| CCOC(=O)NC1CCc2ccc(OCCNS(=O)(=O)c3cc(C)cs3)cc2C1Cc1ccc(Cl)c(Cl)c1 (centres unmarked) [Example 21] | ≤ 100 | ≤ 1000 |  |  |
| CCOC(=O)NC1CCc2ccc(OCCNS(=O)(=O)c3cccnc3)cc2C1Cc1ccc(Cl)c(Cl)c1 (centres unmarked) [Example 10, {1-(3,4-Dichloro-benzyl)-7-[2-(pyridine-3-sulfonylamino)-ethoxy]-1,2,3,4-tetrahydronaphthalen-2-yl}-carbamic acid ethyl ester] | ≤ 10 | ≤ 100 |  |  |
| Cn1cc(S(=O)(=O)NCCOc2ccc3c(c2)C(Cc2ccc(Cl)c(Cl)c2)C(N)CC3)cn1 (centres unmarked) [Example 4, 1-Methyl-1H-pyrazole-4-sulfonic acid {2-[7-amino-8-(3,4-dichloro-benzyl)-5,6,7,8-tetrahydro-naphthalen-2-yloxy]-ethyl}-amide hydrochloride] | ≤ 0.01 | ≤ 0.01 |  |  |
| CCCS(=O)(=O)NCCOc1ccc2c(c1)C(Cc1ccc(Cl)c(Cl)c1)C(N)CC2 (centres unmarked) [Example 8, Propane-1-sulfonic acid {2-[7-amino-8-(3,4-dichloro-benzyl)-5,6,7,8-tetrahydronaphthalen-2-yloxy]-ethyl}-amide hydrochloride] |  |  | ≤ 0.1 | ≤ 0.1 |
| CCOC(=O)NC1CCc2ccc(OCCNS(=O)(=O)c3ccc(C)s3)cc2C1Cc1ccc(Cl)cc1Cl (centres unmarked) [Example 64, {1-(2,4-Dichloro-benzyl)-7-[2-(5-methyl-thiophene-2-sulfonylamino)-ethoxy]-1,2,3,4-tetrahydro-naphthalen-2-yl}-carbamic acid ethyl ester] | ≤ 10 | ≤ 1000 |  |  |
| CCOC(=O)NC1CCc2ccc(OCCNS(=O)(=O)c3sc(C)nc3C)cc2C1Cc1cccc(Cl)c1 (centres unmarked) [Example 49, {1-(3-Chloro-benzyl)-7-[2-(2,4-dimethyl-thiazole-5-sulfonylamino)-ethoxy]-1,2,3,4-tetrahydro-naphthalen-2-yl}-carbamic acid ethyl ester] | ≤ 100 | ≤ 100 |  |  |
| NC1CCc2ccc(OCCNS(=O)(=O)c3cccs3)cc2C1Cc1ccc(Cl)cc1Cl (centres unmarked) [Example 72, Thiophene-2-sulfonic acid {2-[7-amino-8-(2,4-dichloro-benzyl)-5,6,7,8-tetrahydronaphthalen-2-yloxy]-ethyl}-amide hydrochloride] | ≤ 10 | ≤ 10 |  |  |

Continued, in another order:

| Ki [1, 3] [µM] | IC50 [2, 4] [µM] | SMILES | Ki [1] [µM] | IC50 [2] [µM] |
| --- | --- | --- | --- | --- |
| ≤ 0.01 | ≤ 0.01 | Cn1cc(S(=O)(=O)NCCOc2ccc3c(c2)C(Cc2cccc(Cl)c2)C(N)CC3)cn1 (centres unmarked) [Example 47, 1-Methyl-1H-pyrazole-4-sulfonic acid {2-[7-amino-8-(3-chloro-benzyl)-5,6,7,8-tetrahydronaphthalen-2-yloxy]-ethyl}-amide hydrochloride] |  |  |
| ≤ 0.01 | ≤ 0.1 | Cn1cnc(S(=O)(=O)NCCOc2ccc3c(c2)C(Cc2ccc(Cl)c(Cl)c2)C(NC=O)CC3)c1 (centres unmarked) [Example 20, 1-Methyl-1H-imidazole-4-sulfonic acid {2-[8-(3,4-dichloro-benzyl)-7-formylamino-5,6,7,8-tetrahydro-naphthalen-2-yloxy]-ethyl}-amide] |  |  |
| ≤ 10 | ≥ 1000 | CCOC(=O)NC1CCc2ccc(OCCNS(=O)(=O)c3cnn(C(F)F)c3)cc2C1Cc1cccc(Cl)c1 (centres unmarked) [Example 81, {1-(3-Chloro-benzyl)-7-[2-(1-difluoromethyl-1H-pyrazole-4-sulfonylamino)-ethoxy]-1,2,3,4-tetrahydro-naphthalen-2-yl}-carbamic acid ethyl ester] |  |  |
| ≤ 1 | ≤ 10 | CCCS(=O)(=O)NCCOc1ccc2c(c1)C(Cc1ccc(Cl)cc1Cl)C(N)CC2 (centres unmarked) [Example 75, Propane-1-sulfonic acid {2-[7-amino-8-(2,4-dichloro-benzyl)-5,6,7,8-tetrahydronaphthalen-2-yloxy]-ethyl}-amide hydrochloride] |  |  |
| ≤ 0.1 | ≤ 1 | CCCS(=O)(=O)N(C)CCOc1ccc2c(c1)C(Cc1ccc(Cl)cc1)C(N)CC2 (centres unmarked) [Example 77, Propane-1-sulfonic acid {2-[7-amino-8-(4-chloro-benzyl)-5,6,7,8-tetrahydro-naphthalen-2-yloxy]-ethyl}-methyl-amide hydrochloride] |  |  |
| ≤ 10 | ≤ 100 | CCNC1CCc2ccc(OCCNS(=O)(=O)c3cn(C)cn3)cc2C1Cc1ccc(Cl)c(Cl)c1 (centres unmarked) [Example 23, 1-Methyl-1H-imidazole-4-sulfonic acid {2-[8-(3,4-dichloro-benzyl)-7-ethylamino-5,6,7,8-tetrahydro-naphthalen-2-yloxy]-ethyl}-amide] |  |  |
| ≤ 10 | ≤ 10 | CCOC(=O)NC1CCc2ccc(OCCNS(=O)(=O)c3cnc(C)[nH]3)cc2C1Cc1cccc(Cl)c1 (centres unmarked) [Example 52, {1-(3-Chloro-benzyl)-7-[2-(2-methyl-3H-imidazole-4-sulfonylamino)-ethoxy]-1,2,3,4-tetrahydro-naphthalen-2-yl}-carbamic acid ethyl ester] |  |  |
| ≤ 1 | ≤ 10 | NC1CCc2ccc(OCCNS(=O)(=O)c3ccc(Cl)s3)cc2C1Cc1cccc(Cl)c1 (centres unmarked) [Example 59, 5-Chloro-thiophene-2-sulfonic acid {2-[7-amino-8-(3-chloro-benzyl)-5,6,7,8-tetrahydronaphthalen-2-yloxy]-ethyl}-amide] |  |  |
| ≤ 0.01 | ≤ 0.01 | Cn1cc(S(=O)(=O)NCCOc2ccc3c(c2)C(Cc2ccc(Cl)cc2)C(N)CC3)cn1 (centres unmarked) [Example 28, 1-Methyl-1H-pyrazole-4-sulfonic acid {2-[7-amino-8-(4-chloro-benzyl)-5,6,7,8-tetrahydronaphthalen-2-yloxy]-ethyl}-amide hydrochloride] |  |  |
| ≤ 1 | ≤ 1 | CCOC(=O)NC1CCc2ccc(OCCNS(=O)(=O)c3cnn(C)c3)cc2C1Cc1cccc(Cl)c1 (centres unmarked) [Example 46, {1-(3-Chloro-benzyl)-7-[2-(1-methyl-1H-pyrazole-4-sulfonylamino)-ethoxy]-1,2,3,4-tetrahydro-naphthalen-2-yl}-carbamic acid ethyl ester] |  |  |
| ≤ 0.1 | ≤ 1 | Cc1csc(S(=O)(=O)NCCOc2ccc3c(c2)C(Cc2cccc(Cl)c2)C(N)CC3)c1 (centres unmarked) [Example 67, 4-Methyl-thiophene-2-sulfonic acid {2-[7-amino-8-(3-chloro-benzyl)-5,6,7,8-tetrahydronaphthalen-2-yloxy]-ethyl}-amide hydrochloride] |  |  |
| ≤ 1 | ≤ 10 | CCCS(=O)(=O)N1CC(Oc2ccc3c(c2)C(Cc2cccc(Cl)c2)C(N)CC3)C1 (centres unmarked) [Example 83, 1-(3-Chloro-benzyl)-7-[1-(propane-1-sulfonyl)-azetidin-3-yloxy]-1,2,3,4-tetrahydronaphthalen-2-ylamine hydrochloride] |  |  |
| ≤ 0.1 | ≤ 1 | NC1CCc2ccc(OCCNS(=O)(=O)c3cccs3)cc2C1Cc1cccc(Cl)c1 (centres unmarked) [Example 56, Thiophene-2-sulfonic acid {2-[7-amino-8-(3-chloro-benzyl)-5,6,7,8-tetrahydro-naphthalen-2-yloxy]-ethyl}-amide] |  |  |
